Like-named read-outs stand apart in the source and are kept apart here.
Key:
[1] = system: Pyricularia oryzae Cavara KJ301 strain; assay type: in vivo; settings: sprayed one day after inoculation
[2] = system: Pyricularia oryzae Cavara KJ301 strain; assay type: in vivo; settings: sprayed on rice one day before inoculation
[3] = system: Pyricularia oryzae Cavara KJ301 strain; assay type: in vivo; settings: 100 ppm, soil irrigation (10 mL) 24 hours before inoculation
Rhizoctonia solani AG-1 = experiment: Protective effect test on rice sheath blight (RSB); assay type: in vivo
Botrytis cinerea = experiment: Protective effect test on cucumber gray mould (CGM); assay type: in vivo
Phytophthora infestans = assay type: in vivo; settings: sprayed on tomato one day before inoculation
[4] = system: Erysiphe graminis f. sp. hordei; experiment: Protective effect test on barley powdery mildew (BPM); assay type: in vivo
Puccinia recondita [5] = experiment: Protective effect test on wheat leaf rust (WLR); assay type: in vivo
[6] = system: Erysiphe graminis f. sp. hordei; settings: in vivo
Puccinia recondita [7] = settings: in vivo
Puccinia recondita [8] = experiment: Systemic effect test on wheat leaf rust; assay type: in vivo
Sphaerotheca fuliginea = experiment: Protective effect test on cucumber powdery mildew (CPM); assay type: in vivo; settings: sprayed on cucumber one day before inoculation
Experimental: A plant pathogen, Sphaerotheca fuliginea, was prepared by collecting the diseased leaves of cucumber grown in a vinylhouse, and its spores were suspended in sterilized water. The concentration of the pathogenic spores was adjusted to 10^5 spores/mL and used as inoculum. After a cucumber seed (house ‘Baekdadagi®’ cucumber) was sown in a small pot (diameter 6.5 cm), it was grown in a greenhouse for two weeks and young seedlings with the first true completely open leaf were used for test. After the young seedlings of the cucumber in the small pots were sprayed with agricultural fungicidal compositions prepared at the appropriate concentrations, they were left for 1 day in a greenhouse to dry the fungicidal compositions. The young seedlings of cucumber were inoculated with the prepared pathogenic spores of cucumber powdery mildew by spraying and incubated for 10 days in a green house to induce the disease. A ratio of the diseased areas to total areas of the first true completely open leaves was determined according to the criteria for determining a degree of disease induction. […] For only cucumber damping off, it was examined according to the above-mentioned separate criteria.

Venturia inaequalis = experiment: Protective effect test on apple scab (APS); assay type: in vivo; settings: apple seedlings treated one day before inoculation
Pythium ultimum = experiment: Protective effect test on cucumber damping off (CDO); assay type: in vivo; settings: soil irrigation (10 mL), disease index after 7 days
Experimental: The potato mixture was inoculated with a plant pat hogen causing cucumber damping off, Pythium ultimum, incubated at 25° C. for 15 days in a growth chamb e r and used as inoculum. Soil (150 mL) prepared by mixing vermiculite and field soil (1:1) was sterilized and mixed with the potato mixture (1 g) to use it as inoculum. After filling the inoculated soil in the pot (diameter 9 cm), five cucumber seeds (house Baekdadagio® cucumber) were sown in the above pot and irrigated with the agricultural fungicidal compositions (10 mL) prepared at the appropriate concentrations. Seven days after the treating with the agricultural fungicidal compositions, a degree of the disease induction was examined based upon criteria for determining the disease index, and control efficacy was determined according to the above examination. The criteria was listed in the following. Criteria 4: seeds don't germinate due to disease outbreak. 3: a young seedling dies in the middle of emergence. 2: ground surface is narrowed due to disease outbreak. 1: growth is poor due to disease outbreak of partial roots. 0: healthy plant […] For only cucumber damping off, it was examined according to the above-mentioned separate criteria.

[9] = system: Colletotrichum lagenarium; experiment: Protective effect test on cucumber anthracnose (CUA); assay type: in vivo; settings: cucumber treated one day before inoculation
Bipolaris maydis = experiment: Protective effect test on southern corn leaf blight (CLB); assay type: in vivo; settings: corn treated one day before inoculation
Experimental: A plant pathogen, Bipolaris maydis, was inoculated on the Difco Lima Bean Agar (10 g/L) medium containing 10 g/L dextrose, and incubated at 24° C. with and without fluorescent light for 12 hours each time for 7 days in a growth chamber. After forming spores, the conidiospore was harvested in Tween-20 solution (250 ppm), adjusted at the concentration of 5×10^5 spores/ml and used as inoculum. The southern corn (golden crossbantam 70) for test was grown to be at 4 or 5-leaf stage in a greenhouse. One day after the treating with the agricultural fungicidal compositions, the inoculum was sprayed an young seedlings of the corn, and incubated at 27° C. and 100% relative humidity for 24 hours in a dew chamber to infiltrate the pathogen. The young seedling were incubated at 27° C. and 90% relative humidity for 3 days in a growth chamber to induce the disease. A ratio of diseased areas to total areas of the corn leaves was examined according to the criteria for determining a degree of disease induction.
In the above experiment 2, control value of the compound on the tested pathogens was calculated according to the following mathematical formula 1, and the results were shown in Table 2. For only cucumber damping off, it was examined according to the above-mentioned separate criteria.
Control value(%)=(1—the ratio of diseased area in the treated plant/the ratio of diseased area in the untreated plant)×100

[10] = system: Erysiphe graminis f. sp. hordei; experiment: Systemic effect test on barley powdery mildew; assay type: in vivo; settings: soil irrigation (10 mL) 24 hours before inoculation

Cc1cccc2sc3nncn3c12 [A, Tricyclazole]
Control value (%) RCB C.E. (curative effect) ([1]; 100 ppm): 0% | Control value (%) RCB ([2]; 50 ppm): 90% | Control value (%) RCB S.E. (systemic effect) [3]: 87%

OCC1=C[C@H](N[C@H]2C[C@H](CO)[C@@H](O[C@@H]3O[C@H](CO)[C@@H](O)[C@H](O)[C@H]3O)[C@H](O)[C@H]2O)[C@H](O)[C@@H](O)[C@@H]1O [B, Validamycin, reference compound]
Control value (%) RSB (Rhizoctonia solani AG-1; in vivo): 50%

CC12CC1(C)C(=O)N(c1cc(Cl)cc(Cl)c1)C2=O (stereo not shown) [C, Procymidone, reference compound]
Control value (%) CGM (Botrytis cinerea; in vivo): 40%

COc1ccc(C(=CC(=O)N2CCOCC2)c2ccc(Cl)cc2)cc1OC [D, Dimethomotph, reference compound]
Control value (%) TLB (Phytophthora infestans; 10 ppm): 80%

C[Si](Cn1cncn1)(c1ccc(F)cc1)c1ccc(F)cc1 [E, Flusilazole, reference compound]
Control value (%) BPM ([4]; in vivo): 85% | Control value (%) WLR (Puccinia recondita [5]; in vivo): 85% | Control value (%) BPM C.E. (curative effect) [6]: 81% | Control value (%) WLB C.E. (curative effect) (Puccinia recondita [7]): 97%

CO/N=C(/C(=O)OC)c1ccccc1COc1ccccc1C [F, Kresoxim methyl, reference compound]
Control value (%) RCB C.E. (curative effect) ([1]; 10 ppm): 39% | Control value (%) BPM ([4]; in vivo): 94% | Control value (%) CGM (Botrytis cinerea; in vivo): 10% | Control value (%) WLR (Puccinia recondita [5]; in vivo): 93% | Control value (%) RCB ([2]; 10 ppm): 98% | Control value (%) WLB S.E. (systemic effect) (Puccinia recondita [8]; in vivo): 0% | Control value (%) RSB (Rhizoctonia solani AG-1; in vivo): 5% | Control value (%) BPM C.E. (curative effect) [6]: 50% | Control value (%) TLB (Phytophthora infestans; 10 ppm): 57% | Control value (%) RCB S.E. (systemic effect) [3]: 0% | Control value (%) WLB C.E. (curative effect) (Puccinia recondita [7]): 0%

CCCCNC(=O)n1c(NC(=O)OC)nc2ccccc21 [K, Benomyl, reference compound]
Control value (%) CPM (Sphaerotheca fuliginea; 10 ppm): 85% | Control value (%) APS (Venturia inaequalis; 10 ppm): 85% | Control value (%) CDO (Pythium ultimum; 10 ppm): 20% | Control value (%) CUA ([9]; 10 ppm): 65%

CNC(=O)/C(=N/OC)c1c(C)cccc1COc1ccccc1C [The compound of formula 1, N-methyl E-2-((2-methylphenyl)oxymethyl)-6-methylphenylglyoxylamide O-methyl oxime]
Control value (%) RCB C.E. (curative effect) ([1]; 10 ppm): 84% | Control value (%) CPM (Sphaerotheca fuliginea; 1 ppm): 80% | Control value (%) CPM (Sphaerotheca fuliginea; 10 ppm): 100% | Control value (%) CPM (Sphaerotheca fuliginea; 100 ppm): 100% | Control value (%) BPM ([4]; 2 ppm, sprayed on barley one day before inoculation): 98% | Control value (%) BPM ([4]; 10 ppm, sprayed on barley one day before inoculation): 100% | Control value (%) CGM (Botrytis cinerea; 2 ppm, sprayed on cucumber one day before inoculation): 30% | Control value (%) CGM (Botrytis cinerea; 10 ppm, sprayed on cucumber one day before inoculation): 40% | Control value (%) WLR (Puccinia recondita [5]; 2 ppm, sprayed on wheat one day before inoculation): 99% | Control value (%) WLR (Puccinia recondita [5]; 10 ppm, sprayed on wheat one day before inoculation): 100% | Control value (%) APS (Venturia inaequalis; 1 ppm): 60% | Control value (%) APS (Venturia inaequalis; 10 ppm): 92% | Control value (%) APS (Venturia inaequalis; 100 ppm): 100% | Control value (%) CLB (Bipolaris maydis; 10 ppm): 80% | Control value (%) CLB (Bipolaris maydis; 100 ppm): 90% | Control value (%) RCB ([2]; 2 ppm): 100% | Control value (%) RCB ([2]; 10 ppm): 100% | Control value (%) CDO (Pythium ultimum; 1 ppm): 30% | Control value (%) CDO (Pythium ultimum; 10 ppm): 100% | Control value (%) CDO (Pythium ultimum; 100 ppm): 100% | Control value (%) BPM S.E. (systemic effect) ([10]; 2 ppm): 67% | Control value (%) BPM S.E. (systemic effect) ([10]; 10 ppm): 80% | Control value (%) BPM S.E. (systemic effect) ([10]; 100 ppm): 100% | Control value (%) WLB S.E. (systemic effect) (Puccinia recondita [8]; 2 ppm, soil irrigation (10 mL) 24 hours before inoculation): 43% | Control value (%) WLB S.E. (systemic effect) (Puccinia recondita [8]; 10 ppm, soil irrigation (10 mL) 24 hours before inoculation): 100% | Control value (%) WLB S.E. (systemic effect) (Puccinia recondita [8]; 100 ppm, soil irrigation (10 mL) 24 hours before inoculation): 100% | Control value (%) CUA ([9]; 1 ppm): 80% | Control value (%) CUA ([9]; 10 ppm): 100% | Control value (%) CUA ([9]; 100 ppm): 100% | Control value (%) RSB (Rhizoctonia solani AG-1; 2 ppm, sprayed on rice one day before inoculation): 21% | Control value (%) RSB (Rhizoctonia solani AG-1; 10 ppm, sprayed on rice one day before inoculation): 53% | Control value (%) BPM C.E. (curative effect) [6]: 100% | Control value (%) TLB (Phytophthora infestans; 2 ppm): 79% | Control value (%) TLB (Phytophthora infestans; 10 ppm): 89% | Control value (%) RCB S.E. (systemic effect) [3]: 56% | Control value (%) WLB C.E. (curative effect) (Puccinia recondita [7]): 100%

Mancozeb [L, reference compound]
Control value (%) APS (Venturia inaequalis; 100 ppm): 82% | Control value (%) CLB (Bipolaris maydis; 100 ppm): 80% | Control value (%) CUA ([9]; 100 ppm): 85%
